The structures appear in SMILES notation. Activity calls are given as the source filed them. No cut-off for these calls is given here.

The subject of test [1] is Mus musculus. Kind of test: Antidepressant activity in Mus musculus Kunming (mouse) assessed as immobility time at 40 mg/kg, po administered 30 min prior to testing measured for 6 min by forced swimming test (reference value: 177.67 +/- 10.88 secs). The class given is functional.
Test [2] relates to Mus musculus. The test can be described thus: Antidepressant activity in Mus musculus Kunming (mouse) assessed as decrease in immobility time at 40 mg/kg, po administered 30 min prior to testing measured for 6 min by tail suspension test (reference value: 110.67 +/- 11.52 secs). The class given is functional.

As for `Cc1ccc(COc2ccc3c(c2)CCc2nnnn2-3)cc1`, in the test with Mus musculus [1], the Time is recorded as 65.17 s.
On to `COc1ccc(COc2ccc3c(c2)CCc2nnnn2-3)cc1`, for which the Time in the test on Mus musculus [2] came to 20 s; in the test on Mus musculus [1], 65.17 s.
With `Fc1ccccc1COc1ccc2c(c1)CCc1nnnn1-2`, the Time with Mus musculus [2] amounted to 20 s.
Same read-out and setting: the same measure for `Brc1cccc(COc2ccc3c(c2)CCc2nnnn2-3)c1`: 20 s.
In the case of `Nc1ccc(COc2ccc3c(c2)CCc2nnnn2-3)cc1`, the Time is listed as 98.5 s with Mus musculus [2] and 178 s in the test with Mus musculus [1].
The corresponding values for `CCCCCCCCOc1ccc2c(c1)CCc1nnnn1-2` are 107.5 s and 172.83 s.
For `CNCCC(Oc1ccc(C(F)(F)F)cc1)c1ccccc1` (configuration not stated) [FLUOXETINE], the result in the test on Mus musculus [2] was Active. Also, in the test on Mus musculus [1], the Time amounted to 93.17 s.
As for `Clc1ccccc1COc1ccc2c(c1)CCc1nnnn1-2`, the Time in the test on Mus musculus [2] is given as 20 s; in the test with Mus musculus [1], 65.17 s.
Take `CCCCCCOc1ccc2c(c1)CCc1nnnn1-2`: the Time in the test on Mus musculus [1] stood at 133.5 s.
Turning to `CCCCCOc1ccc2c(c1)CCc1nnnn1-2`, the Time with Mus musculus [2] is 20 s; in the test with Mus musculus [1], 135.67 s.
Take `Brc1ccccc1COc1ccc2c(c1)CCc1nnnn1-2`: the Time in the test on Mus musculus [2] was 20 s; in the test with Mus musculus [1], 65.17 s.
For `Fc1cccc(COc2ccc3c(c2)CCc2nnnn2-3)c1` the same measures were 20 s and 65.17 s.
The corresponding values for `CCOc1ccc2c(c1)CCc1nnnn1-2` are 108.17 s and 179.83 s.
The corresponding values for `c1ccc(COc2ccc3c(c2)CCc2nnnn2-3)cc1` are 20 s and 95.17 s.
As for `Clc1ccc(COc2ccc3c(c2)CCc2nnnn2-3)cc1`, the Time in the test with Mus musculus [2] turned out to be 20 s.
For `CCCCCCCOc1ccc2c(c1)CCc1nnnn1-2`, the Time is listed as 20 s with Mus musculus [2] and 170.5 s in the test with Mus musculus [1].
For `CCCOc1ccc2c(c1)CCc1nnnn1-2` the same measures were 93 s and 181.5 s.
With `CCCCOc1ccc2c(c1)CCc1nnnn1-2`, the Time in the test with Mus musculus [2] is 20 s.
On to `Clc1cccc(COc2ccc3c(c2)CCc2nnnn2-3)c1`, for which, in the test on Mus musculus [1], the Time worked out at 65.17 s.
On the same count and under the same terms, as for `Fc1ccc(COc2ccc3c(c2)CCc2nnnn2-3)cc1`, the figure is 65.17 s.

For the origin of these results see ChEMBL document CHEMBL3045578, “Synthesis and study of the antidepressant activity of novel 4,5-dihydro-7-alkoxy(phenoxy)-tetrazolo[1,5-a]quinoline derivatives” (2012).
